Measured values reported in article PMC11850817 (Scientific Reports, 2025).
Where two headings read alike, the source gives them in different places.

How the values were obtained:
[1] = test system: Mia-Paca-2; assay: MTT antiproliferative assay, Mia-Paca-2; format: cell-based, human; conditions: read-out: IC50 Mia-Paca-2
[2] = test system: MCF-7; assay: MTT antiproliferative assay, MCF-7; format: cell-based, human; conditions: read-out: IC50 MCF-7
[3] = test system: HT-29; assay: MTT antiproliferative assay, HT-29; format: cell-based, human; conditions: read-out: IC50 HT-29
[4] = test system: EBC-1; assay: MTT antiproliferative assay, EBC-1; format: cell-based, human; conditions: read-out: IC50 EBC-1
[5] = test system: AsPC-1; assay: MTT antiproliferative assay, AsPC-1; format: cell-based, human; conditions: read-out: IC50 AsPC-1
[6] = test system: NIH3T3; assay: MTT assay, NIH3T3 non-cancer cell line; format: cell-based; conditions: read-out: IC50 NIH3T3
[7] = target: FLT3 (Homo sapiens, UniProt P36888); assay: Radiometric kinase assay; format: biochemical; conditions: read-out: Kinase inhibition (%) FLT3
[8] = target: FLT4 (VEGFR3) (Homo sapiens, UniProt P35916); assay: Radiometric kinase assay; format: biochemical; conditions: for inhibition at 10 µM: read-out: Kinase inhibition (%) FLT4 (VEGFR3)
Chain of FLT4 (VEGFR3) (P35916 25-1363): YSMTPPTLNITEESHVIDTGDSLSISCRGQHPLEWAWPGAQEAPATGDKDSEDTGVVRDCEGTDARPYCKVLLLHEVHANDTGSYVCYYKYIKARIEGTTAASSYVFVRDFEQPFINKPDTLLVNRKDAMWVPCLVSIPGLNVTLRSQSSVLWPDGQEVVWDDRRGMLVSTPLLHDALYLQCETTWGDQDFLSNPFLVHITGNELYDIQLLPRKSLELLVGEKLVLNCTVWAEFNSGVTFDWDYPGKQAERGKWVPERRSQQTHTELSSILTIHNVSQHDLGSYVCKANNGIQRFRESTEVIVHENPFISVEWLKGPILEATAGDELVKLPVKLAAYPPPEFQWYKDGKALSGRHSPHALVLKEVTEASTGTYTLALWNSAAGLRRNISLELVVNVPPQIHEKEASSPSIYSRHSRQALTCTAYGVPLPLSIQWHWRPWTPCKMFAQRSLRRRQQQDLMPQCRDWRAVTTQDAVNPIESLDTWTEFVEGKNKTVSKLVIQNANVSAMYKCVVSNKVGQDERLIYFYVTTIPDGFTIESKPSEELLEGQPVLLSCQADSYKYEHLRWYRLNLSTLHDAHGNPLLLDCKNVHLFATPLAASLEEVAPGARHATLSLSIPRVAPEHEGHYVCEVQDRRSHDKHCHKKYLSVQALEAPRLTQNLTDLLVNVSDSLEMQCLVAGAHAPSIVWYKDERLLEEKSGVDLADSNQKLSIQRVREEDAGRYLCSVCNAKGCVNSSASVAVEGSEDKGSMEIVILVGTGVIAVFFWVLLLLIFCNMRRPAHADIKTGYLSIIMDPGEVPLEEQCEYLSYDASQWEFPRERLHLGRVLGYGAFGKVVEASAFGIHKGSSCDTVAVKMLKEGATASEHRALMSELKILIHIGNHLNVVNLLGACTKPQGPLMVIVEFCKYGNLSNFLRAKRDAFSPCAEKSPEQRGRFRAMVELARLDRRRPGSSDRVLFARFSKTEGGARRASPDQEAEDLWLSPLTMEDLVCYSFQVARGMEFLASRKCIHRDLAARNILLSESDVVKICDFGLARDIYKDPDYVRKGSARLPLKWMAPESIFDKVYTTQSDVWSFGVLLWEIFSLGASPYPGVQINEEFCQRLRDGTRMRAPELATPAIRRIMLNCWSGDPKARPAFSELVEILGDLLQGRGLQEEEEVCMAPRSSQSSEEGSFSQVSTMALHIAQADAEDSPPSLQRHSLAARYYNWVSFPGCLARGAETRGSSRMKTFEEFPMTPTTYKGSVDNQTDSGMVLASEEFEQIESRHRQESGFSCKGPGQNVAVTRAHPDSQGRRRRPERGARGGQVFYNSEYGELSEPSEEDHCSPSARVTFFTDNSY

[9] = target: PDGFRA (PDGFRα) (Homo sapiens, UniProt P16234); assay: Radiometric kinase assay; format: biochemical; conditions: for inhibition at 10 µM: read-out: Kinase inhibition (%) PDGFRA (PDGFRα)
Chain of PDGFRA (PDGFRα) (P16234 24-1089): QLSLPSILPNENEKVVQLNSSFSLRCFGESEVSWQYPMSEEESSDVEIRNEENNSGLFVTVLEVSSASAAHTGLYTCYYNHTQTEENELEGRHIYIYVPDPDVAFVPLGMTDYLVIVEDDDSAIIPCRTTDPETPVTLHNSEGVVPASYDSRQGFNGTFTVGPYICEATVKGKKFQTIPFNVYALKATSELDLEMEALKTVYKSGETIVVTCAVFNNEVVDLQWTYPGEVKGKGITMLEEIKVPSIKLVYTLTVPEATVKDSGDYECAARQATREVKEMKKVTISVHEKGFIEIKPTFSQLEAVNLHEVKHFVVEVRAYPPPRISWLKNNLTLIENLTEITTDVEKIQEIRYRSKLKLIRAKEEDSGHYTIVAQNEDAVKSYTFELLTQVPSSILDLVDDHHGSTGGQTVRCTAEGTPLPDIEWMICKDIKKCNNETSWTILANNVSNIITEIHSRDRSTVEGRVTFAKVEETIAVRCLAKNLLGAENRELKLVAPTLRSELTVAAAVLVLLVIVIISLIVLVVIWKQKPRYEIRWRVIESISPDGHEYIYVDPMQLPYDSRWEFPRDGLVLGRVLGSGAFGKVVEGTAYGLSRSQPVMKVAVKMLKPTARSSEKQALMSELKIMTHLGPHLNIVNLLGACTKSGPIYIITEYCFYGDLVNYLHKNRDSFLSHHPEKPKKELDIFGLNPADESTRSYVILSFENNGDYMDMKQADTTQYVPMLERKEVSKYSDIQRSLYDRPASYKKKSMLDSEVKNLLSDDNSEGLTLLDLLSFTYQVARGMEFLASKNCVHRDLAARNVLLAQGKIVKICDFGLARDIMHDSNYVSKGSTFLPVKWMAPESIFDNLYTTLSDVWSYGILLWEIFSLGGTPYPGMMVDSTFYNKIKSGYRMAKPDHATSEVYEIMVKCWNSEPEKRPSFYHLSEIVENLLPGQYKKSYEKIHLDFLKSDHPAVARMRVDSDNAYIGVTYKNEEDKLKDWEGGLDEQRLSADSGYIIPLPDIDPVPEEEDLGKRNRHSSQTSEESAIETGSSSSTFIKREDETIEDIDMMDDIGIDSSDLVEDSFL

[10] = target: MET (Homo sapiens, UniProt P08581); assay: Radiometric kinase assay; format: biochemical; conditions: read-out: Kinase inhibition (%) MET
Chain of MET (P08581 25-1390): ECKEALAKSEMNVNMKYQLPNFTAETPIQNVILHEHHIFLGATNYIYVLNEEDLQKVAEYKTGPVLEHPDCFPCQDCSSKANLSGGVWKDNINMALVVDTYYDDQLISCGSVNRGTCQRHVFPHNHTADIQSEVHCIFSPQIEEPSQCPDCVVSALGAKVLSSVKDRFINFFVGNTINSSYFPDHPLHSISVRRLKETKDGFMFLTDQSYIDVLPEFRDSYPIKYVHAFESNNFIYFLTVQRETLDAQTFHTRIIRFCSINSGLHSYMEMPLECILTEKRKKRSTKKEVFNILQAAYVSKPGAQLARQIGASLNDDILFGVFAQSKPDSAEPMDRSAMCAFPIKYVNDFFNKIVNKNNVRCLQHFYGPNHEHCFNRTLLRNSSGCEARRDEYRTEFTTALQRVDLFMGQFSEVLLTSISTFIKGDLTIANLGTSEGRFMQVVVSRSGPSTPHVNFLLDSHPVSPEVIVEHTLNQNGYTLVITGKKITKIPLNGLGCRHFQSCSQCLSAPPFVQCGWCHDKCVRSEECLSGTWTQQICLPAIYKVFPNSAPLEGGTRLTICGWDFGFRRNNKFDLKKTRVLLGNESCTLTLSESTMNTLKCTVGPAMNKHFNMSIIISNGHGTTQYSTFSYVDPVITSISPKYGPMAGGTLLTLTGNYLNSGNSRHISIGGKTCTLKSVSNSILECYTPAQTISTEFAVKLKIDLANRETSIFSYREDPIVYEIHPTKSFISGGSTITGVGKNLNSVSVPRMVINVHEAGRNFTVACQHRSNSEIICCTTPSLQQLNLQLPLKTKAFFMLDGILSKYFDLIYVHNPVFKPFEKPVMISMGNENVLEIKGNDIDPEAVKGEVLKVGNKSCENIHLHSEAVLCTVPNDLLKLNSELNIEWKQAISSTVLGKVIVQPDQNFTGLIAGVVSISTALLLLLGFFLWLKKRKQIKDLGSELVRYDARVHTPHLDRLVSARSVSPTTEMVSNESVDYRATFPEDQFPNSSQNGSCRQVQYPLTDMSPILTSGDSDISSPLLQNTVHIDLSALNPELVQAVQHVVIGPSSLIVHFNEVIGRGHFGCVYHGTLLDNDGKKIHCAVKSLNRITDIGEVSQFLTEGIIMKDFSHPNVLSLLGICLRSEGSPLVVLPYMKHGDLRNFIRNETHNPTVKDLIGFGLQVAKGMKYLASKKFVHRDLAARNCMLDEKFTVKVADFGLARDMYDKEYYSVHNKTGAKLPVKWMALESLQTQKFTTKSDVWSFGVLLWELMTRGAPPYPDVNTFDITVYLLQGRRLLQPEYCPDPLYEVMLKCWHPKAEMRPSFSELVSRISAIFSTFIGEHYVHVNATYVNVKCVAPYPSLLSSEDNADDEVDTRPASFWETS

[11] = target: NTRK1 (TrkA) (Homo sapiens, UniProt P04629); assay: Radiometric kinase assay; format: biochemical; conditions: read-out: Kinase inhibition (%) NTRK1 (TrkA)
[12] = target: KDR (VEGFR2) (Homo sapiens, UniProt P35968); assay: Radiometric kinase assay; format: biochemical; conditions: read-out: Kinase inhibition (%) KDR (VEGFR2)
Chain of KDR (VEGFR2) (P35968 20-1356): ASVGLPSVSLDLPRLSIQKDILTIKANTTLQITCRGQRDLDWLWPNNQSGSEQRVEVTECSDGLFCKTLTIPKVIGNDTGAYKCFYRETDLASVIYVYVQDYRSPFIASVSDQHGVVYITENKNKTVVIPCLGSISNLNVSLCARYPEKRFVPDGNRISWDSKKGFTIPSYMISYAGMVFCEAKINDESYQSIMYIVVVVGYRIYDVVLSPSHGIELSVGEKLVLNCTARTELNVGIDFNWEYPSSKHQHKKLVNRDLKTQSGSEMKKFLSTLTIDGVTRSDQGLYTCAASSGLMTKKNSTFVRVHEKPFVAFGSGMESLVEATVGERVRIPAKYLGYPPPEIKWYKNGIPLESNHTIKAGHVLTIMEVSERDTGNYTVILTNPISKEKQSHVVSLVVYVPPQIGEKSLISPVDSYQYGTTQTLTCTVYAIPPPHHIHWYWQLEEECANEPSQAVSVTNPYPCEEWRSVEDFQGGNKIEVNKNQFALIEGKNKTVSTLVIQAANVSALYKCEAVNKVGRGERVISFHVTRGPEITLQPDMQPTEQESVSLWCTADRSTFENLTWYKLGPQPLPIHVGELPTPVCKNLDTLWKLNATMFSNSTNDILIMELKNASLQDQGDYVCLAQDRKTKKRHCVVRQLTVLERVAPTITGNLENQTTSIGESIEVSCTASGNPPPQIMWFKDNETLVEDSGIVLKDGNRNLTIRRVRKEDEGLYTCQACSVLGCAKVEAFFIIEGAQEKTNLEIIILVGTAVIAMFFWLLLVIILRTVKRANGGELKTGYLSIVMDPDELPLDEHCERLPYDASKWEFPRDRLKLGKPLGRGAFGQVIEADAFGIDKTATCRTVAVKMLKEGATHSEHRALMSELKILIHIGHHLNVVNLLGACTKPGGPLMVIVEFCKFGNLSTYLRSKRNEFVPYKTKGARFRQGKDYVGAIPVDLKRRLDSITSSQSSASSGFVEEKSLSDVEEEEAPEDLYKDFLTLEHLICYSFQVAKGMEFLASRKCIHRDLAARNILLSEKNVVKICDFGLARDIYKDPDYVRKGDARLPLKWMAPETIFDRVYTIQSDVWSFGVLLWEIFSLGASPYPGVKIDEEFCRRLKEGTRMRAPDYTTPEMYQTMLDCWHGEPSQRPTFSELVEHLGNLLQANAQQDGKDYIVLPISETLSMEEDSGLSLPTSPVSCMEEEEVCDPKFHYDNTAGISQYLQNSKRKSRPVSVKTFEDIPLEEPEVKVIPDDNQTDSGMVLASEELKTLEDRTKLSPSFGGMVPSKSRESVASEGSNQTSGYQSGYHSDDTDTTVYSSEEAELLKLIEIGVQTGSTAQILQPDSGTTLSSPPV

[13] = target: CDK2/cyclin A (Homo sapiens, UniProt P24941); assay: Radiometric kinase assay; format: biochemical; conditions: for inhibition at 10 µM: read-out: Kinase inhibition (%) CDK2/cyclin A
[14] = target: PDGFRB (PDGFRβ) (Homo sapiens, UniProt P09619); assay: Radiometric kinase assay; format: biochemical; conditions: read-out: Kinase inhibition (%) PDGFRB (PDGFRβ)
[15] = target: NTRK2 (TrkB) (Homo sapiens, UniProt Q16620); assay: Radiometric kinase assay; format: biochemical; conditions: read-out: Kinase inhibition (%) NTRK2 (TrkB)
[16] = target: T1, AXL (Homo sapiens, UniProt P30530); assay: Radiometric kinase assay; format: biochemical; conditions: read-out: Kinase inhibition (%) AXL
T1 sequence (P30530 26-894): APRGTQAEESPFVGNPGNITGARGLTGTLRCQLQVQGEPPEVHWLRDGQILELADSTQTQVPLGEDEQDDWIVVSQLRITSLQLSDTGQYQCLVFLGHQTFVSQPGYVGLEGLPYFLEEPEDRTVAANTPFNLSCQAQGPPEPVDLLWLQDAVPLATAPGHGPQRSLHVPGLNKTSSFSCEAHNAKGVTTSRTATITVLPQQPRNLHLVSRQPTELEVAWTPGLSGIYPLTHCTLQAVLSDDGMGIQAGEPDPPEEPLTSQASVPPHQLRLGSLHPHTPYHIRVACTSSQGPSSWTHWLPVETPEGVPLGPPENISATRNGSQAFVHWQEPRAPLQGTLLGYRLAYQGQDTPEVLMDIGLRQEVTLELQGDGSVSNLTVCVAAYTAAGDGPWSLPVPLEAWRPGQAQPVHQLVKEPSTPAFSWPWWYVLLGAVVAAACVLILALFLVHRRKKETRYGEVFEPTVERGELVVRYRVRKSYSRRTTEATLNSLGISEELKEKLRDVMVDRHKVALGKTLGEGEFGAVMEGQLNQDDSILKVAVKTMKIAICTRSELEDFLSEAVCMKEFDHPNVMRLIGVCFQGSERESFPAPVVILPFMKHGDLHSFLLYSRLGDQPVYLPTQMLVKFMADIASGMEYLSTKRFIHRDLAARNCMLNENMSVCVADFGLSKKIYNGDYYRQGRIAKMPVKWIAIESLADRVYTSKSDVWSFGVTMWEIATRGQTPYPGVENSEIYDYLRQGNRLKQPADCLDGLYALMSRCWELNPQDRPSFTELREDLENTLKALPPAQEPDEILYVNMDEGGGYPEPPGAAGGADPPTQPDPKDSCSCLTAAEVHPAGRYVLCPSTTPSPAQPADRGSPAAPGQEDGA

[17] = target: FLT1 (VEGFR1) (Homo sapiens, UniProt P17948); assay: Radiometric kinase assay; format: biochemical; conditions: read-out: Kinase inhibition (%) FLT1 (VEGFR1)
[18] = test system: AsPC-1 cells; assay: Apoptosis by Hoechst 33,258 staining; format: cell-based, human; conditions: AsPC-1, 10 and 30 µM, 48 h
[19] = test system: AsPC-1 cells; assay: Cell cycle test, RNase/PI flow cytometry; format: cell-based, human; conditions: AsPC-1, 3, 10, 30, 50 µM, 48 h
[20] = test system: EBC-1, AsPC-1, Mia-Paca-2, HT-29, MCF-7 cancer cells; assay: MTT antiproliferative assay, cancer cell lines summarised; format: cell-based, human; conditions: MTT
[21] = MTT, 72 h, mean ± S.E.M. of 3–5 experiments

Structure (SMILES) | IC50 ([1]; Homo sapiens, MIA PaCa-2, 72 h) | IC50 ([2]; Homo sapiens, MCF7, 72 h) | IC50 ([3]; Homo sapiens, HT-29, 72 h) | IC50 ([4]; Homo sapiens, EBC-1, 72 h) | IC50 ([5]; Homo sapiens, ASPC1, 72 h) | IC50 ([6]; Mus musculus, NIH3T3, 72 h) | also measured
COc1cc2nccc(Oc3ccc(NC(=O)C4(C(=O)Nc5ccc(F)cc5)CC4)cc3)c2cc1OC [Cabozantinib, reference compound] | 7.4 ± 0.6 µM | 17.8 ± 2.4 µM | 3.7 ± 0.4 µM | 60 ± 10 nM | 21.3 ± 2.03 µM |  | 
N.N.[Cl][Pt][Cl] [Cisplatin, reference compound] |  |  |  |  |  |  | IC50 [1, 21]: 22.1 ± 6.2 µM; IC50 ([6]; MTT, 72 h, non-cancer cell line, mean ± S.E.M.): 8.3 ± 1.4 µM; IC50 [2, 21]: 43.1 ± 1.9 µM; IC50 [3, 21]: 43.3 ± 17.3 µM; IC50 [4, 21]: 24000 ± 5500 nM; IC50 [5, 21]: 5.4 ± 0.6 µM
CC(C)c1ccc(Cn2cc(COc3ccc(NC4=CC(=O)c5ccccc5C4=O)cc3)nn2)cc1 [Compound 4 g, 2-((4-((1-(4-Isopropylbenzyl)−1H-1,2,3-triazol-4-yl)methoxy)phenyl)amino) naphthalene-1,4-dione] | 45 ± 8.2 µM | 22.3 ± 3.8 µM | 4.9 ± 0.9 µM | 2000 ± 500 nM | 12.8 ± 2.9 µM | 24.5 ± 5.2 µM | inhibition at 10 µM [7]: -2%; inhibition at 10 µM [8]: 9%; inhibition at 10 µM [9]: 29%; inhibition at 10 µM [10]: -11%; inhibition at 10 µM [11]: 6%; inhibition at 10 µM [12]: -10%; inhibition at 10 µM [13]: 1%
CC(C)(C)c1ccc(Cn2cc(COc3ccc(NC4=CC(=O)c5ccccc5C4=O)cc3)nn2)cc1 [Compound 4 h, 2-((4-((1-(4-(Tert-butyl)benzyl)−1H-1,2,3-triazol-4yl)methoxy)phenyl)amino) naphthalene-1,4-dione] | 31.3 ± 3.3 µM | 20.3 ± 0.2 µM | 2.5 ± 0.7 µM | 8700 ± 1300 nM | 16.2 ± 2 µM | 46.7 ± 3.2 µM | 
O=C1C=C(Nc2ccc(OCc3cn(Cc4ccc(F)cc4)nn3)cc2)C(=O)c2ccccc21 [Compound 4c, 2-((4-((1-(4-Fluorobenzyl)−1H-1,2,3-triazol-4-yl)methoxy)phenyl)amino) naphthalene-1,4-dione] | 61 ± 6.6 µM | 26.9 ± 0.2 µM | > 100 µM | 13700 ± 3300 nM | 34.8 ± 15.3 µM | 20.1 ± 3.3 µM | 
O=C1C=C(Nc2ccc(OCc3cn(Cc4ccc(Cl)cc4)nn3)cc2)C(=O)c2ccccc21 [Compound 4d, 2-((4-((1-(4-Chlorobenzyl)−1H-1,2,3-triazol-4-yl)methoxy)phenyl)amino) naphthalene-1,4-dione] | 21.3 ± 3.6 µM | 15.9 ± 4.6 µM | 3.1 ± 0.4 µM | 1900 ± 300 nM | 20.8 ± 6.8 µM | 14.4 ± 1.9 µM | 
O=C1C=C(Nc2ccc(OCc3cn(Cc4cccc(Cl)c4)nn3)cc2)C(=O)c2ccccc21 [Compound 4f, 2-((4-((1-(3-Chlorobenzyl)−1H-1,2,3-triazol-4-yl)methoxy)phenyl)amino) naphthalene-1,4-dione] | 42.1 ± 12.6 µM | > 100 µM | 1.9 ± 0.4 µM | 2300 ± 400 nM | 10.5 ± 2.6 µM | 29.8 ± 7.3 µM | 
Cc1ccc(Cn2cc(COc3ccc(NC4=CC(=O)c5ccccc5C4=O)cc3)nn2)cc1 [Compound 4i, 2-((4-((1-(4-Methylbenzyl)−1H-1,2,3-triazol-4-yl)methoxy)phenyl)amino) naphthalene-1,4-dione] | 20.6 ± 6.2 µM | 13.9 ± 0.7 µM | 1.3 ± 0.5 µM | 2500 ± 300 nM | 5.4 ± 0.9 µM | 25.5 ± 6.1 µM | inhibition at 10 µM [14]: 5%; inhibition at 10 µM [15]: 19%; IC50 [8]: 1336 ± 6 nM; inhibition at 10 µM [8]: 87%; IC50 [9]: 220 ± 9 nM; inhibition at 10 µM [9]: 74%; inhibition at 10 µM [16]: 8%; inhibition at 10 µM [17]: -17%; inhibition at 10 µM [10]: 16%; Apoptosis induction (nuclear morphology) [18]: characteristic features of apoptosis including densely packed chromatin within the nucleus as well as nuclear fragmentation; Effect on cell cycle distribution (S and G2/M phases) [19]: dose-dependently increased the number of cells in the S phase and simultaneously reduced the cells in G2/M phase; inhibition at 10 µM [12]: 28%; IC50 [13]: 11.3 ± 0.477 µM; inhibition at 10 µM [13]: 51%
O=C1C=C(Nc2ccc(OCc3cn(CCN4C(=O)c5ccccc5C4=O)nn3)cc2)C(=O)c2ccccc21 [Compound 4j, 2-(2-(4-((4-((1,4-Dioxo-1,4-dihydronaphthalen-2-yl)amino)phenoxy)methyl)−1H-1,2,3-triazol-1-yl)ethyl)isoindoline-1,3-dione] | > 100 µM | > 100 µM | > 50 µM | > 50000 nM | > 100 µM |  | Antiproliferative activity against cancer cell lines (in words) [20]: devoid of any antiproliferative potential against all cancer cells
COc1cccc2c1C(=O)c1c(O)c3c(c(O)c1C2=O)C[C@@](O)(C(=O)CO)C[C@@H]3O[C@H]1C[C@H](N)[C@H](O)[C@H](C)O1 [Doxorubicin, reference compound] | 0.0881 ± 0.0526 µM | 0.137 ± 0.0063 µM | 0.6 ± 0.2 µM | 500 ± 100 nM | 1.73 ± 0.2 µM | 0.013 ± 0.0021 µM | 
